Experimental data reported in US3982931A, “N,N-di-sec.butyl-benzamide herbicides” (priority 1967, dated 1976).

What was measured:
Assay in all cases: herbicidal activity, soil treatment one day after sowing
Assay type in all cases: in vivo
artemisia vulgaris L. = system: artemisia vulgaris L.
From the text: (§1) The infesting species and the agrarian species have been indicated in Table 1 by letters, as follows:
B = artemisia vulgaris L.
(§2) Method of evaluation of the results (of tests):
(§3) 1 slight differences with respect to the control;
(§4) 3 = considerable activity with damages that definitely impair the further development of most of the small plants; an activity degree already useful for practical purposes;
(§5) 4 = maximum of activity with lack of germination or total containment of the small plants in the emerging stage.
(§6) In the case of an intermediate activity between two classes of the scale, both values are recorded with the one which corresponds to the preeminent activity preceding.
(§7) TABLE 2 reports the activity data of other compounds that fall within the class which is the object of this invention.
(§8) TABLE 3 reports data on the herbicidal activity against infesting herbs, while TABLE 4 reports data concerning the activity on useful species of agricultural cultivations. These tables employ the criterion explained previously. […]

vicia sativa L. = system: vicia sativa L.
From the text: as §1, §2, §3, §4, §5, §6, §7

[1] = system: amaranthus retroflexus L.
From the text: as §1
A = amaranthus retroflexus L.
as §2, §3, §4, §5, §6, §7, §8

chenopodium album L. = system: chenopodium album L.
From the text: as §1, §2, §3, §4, §5, §6, §7, §8

setaria glauca L. = system: setaria glauca L.
From the text: as §1, §2, §3, §4, §5
In the case of an intermediate activity between two classes of the scale, both values are recorded with the one which corresponds to the preeminent activity preceding. […]
as §8

[2] = system: echinocloa crus-galli R.S.
From the text: as §1
D = echinocloa crus-galli R.S.
as §2, §3, §4, §5, §6, §7, §8

Row | Structure (SMILES) | activity on B, 0-4 scale (artemisia vulgaris L.; 6 kg/ha) | activity on F, 0-4 scale (vicia sativa L.; 6 kg/ha) | activity on A, 0-4 scale ([1]; 6 kg/ha) | activity on C, 0-4 scale (chenopodium album L.; 6 kg/ha) | activity on E, 0-4 scale (setaria glauca L.; 6 kg/ha) | activity on D, 0-4 scale ([2]; 6 kg/ha) | other results
1 | O=C(O)c1ccc(Cl)c(Cl)c1 [3,4-dichloro-benzoic acid, reference compound] | 0 | 0 | 0 | 0 | 0 | 0 | 
2 | CCCCN(CCCC)C(=O)c1ccc(Cl)c(Cl)c1 [PA105, 3,4-dichloro-N,N-di-n.butyl-benzamide, reference compound] | 1-2 | 0-1 | 1-2 | 1 | 2 | 1 | activity on B, 0-4 scale (artemisia vulgaris L.; 3 kg/ha): 0-1; activity on F, 0-4 scale (vicia sativa L.; 3 kg/ha): 0; activity on C, 0-4 scale (chenopodium album L.; 3 kg/ha): 0-1; activity on E, 0-4 scale (setaria glauca L.; 3 kg/ha): 1; activity on D, 0-4 scale ([2]; 3 kg/ha): 0-1
3 | CCCN(CCC)C(=O)c1ccc(Cl)cc1Cl [PA200, 2,4-dichloro-N,N-di-n-propyl-benzamide, reference compound] | 2-3 | 0-1 | 3 | 2-3 | 1 | 2 | 
4 | CC(C)CN(CC(C)C)C(=O)c1ccc(Cl)c(Cl)c1 [PA259, 3,4-dichloro-N,N-di-iso-butyl-benzamide, reference compound] | 2 | 0-1 | 1-2 | 1-2 |  |  | 
5 | CC(C)N(C(=O)c1ccc(Cl)cc1Cl)C(C)C [PA281, 2,4-dichloro-N,N-di-isopropyl-benzamide, reference compound] | 2 | 0 | 1-2 | 0-1 | 0-1 | 0-1 | 
6 | CCCCN(CCCC)C(=O)c1ccc(Cl)cc1Cl [PA282, 2,4-dichloro-N,N-di-n.butyl-benzamide, reference compound] | 0 | 0-1 | 2 | 2 | 1 | 1 | 
7 | CCN(CC)C(=O)c1ccc(Cl)cc1Cl [PA283, 2,4-dichloro-N,N-diethyl-benzamide, reference compound] | 2 | 1 | 1 | 1-2 | 1 | 1 | 
8 | CCCCN(CCCC)C(=O)c1cc(Cl)cc(Cl)c1 [PA294, 3,5-dichloro-N,N-di-n.butyl-benzamide, reference compound] | 0-1 | 0 | 0-1 | 1 | 3 | 2 | 
9 | O=C(O)c1cc(Cl)cc(Cl)c1Cl [PA304, 2,3,5-trichloro-benzoic acid, reference compound] | 1 | 3 | 1 | 0 | 0 | 0 | 
10 | CCCN(CCC)C(=O)c1cccc(Cl)c1 [PA322, 3,chloro-N,N-di-n.propyl-benzamide, reference compound] | 1-2 |  | 1 | 0-1 | 0-1 | 1 | 
11 | CCCCN(CC)C(=O)c1ccc(Cl)c(Cl)c1 [PA325, 3,4-dichloro-N-ethyl,N-n.butyl-benzamide, reference compound] | 2 | 0 | 3 | 2 | 0-1 | 0-1 | 
12 | CCN(CC)C(=O)c1cccc(C)c1 [PA383, 3,methyl-N,N-diethyl-benzamide, reference compound] | 3 | 2 | 2 | 2 | 0-1 | 0-1 | 
13 | CCCN(CCC)C(=O)c1cccc(C)c1 [PA384, 3,methyl-N,N-di-n.propyl-benzamide, reference compound] | 2 | 1-2 | 1 | 2 | 0-1 | 1-2 | 
14 | Cc1cccc(C(=O)N(C(C)C)C(C)C)c1 [PA385, 3,methyl-N,N-di-isopropyl-benzamide, reference compound] | 2 | 0-1 | 1-2 | 1 | 0-1 |  | 
15 | CCCCN(CCCC)C(=O)c1cccc(C)c1 [PA386, 3,methyl-N,N-di-n.butyl-benzamide, reference compound] | 1-2 | 0-1 | 3 | 2-3 | 0-1 | 0-1 | 
16 | CCCCN(CCCC)C(=O)c1cccc(Br)c1 [PA396, 3-bromo-N,N-di-n,butyl-benzamide, reference compound] | 1-2 | 0 | 1 | 0-1 | 0 | 0-1 | 
17 | O=C(O)c1cccc(Cl)c1 [PA439, 3,chloro-benzoic acid, reference compound] | 0 | 0 | 0 | 0 | 0 | 0 | 
18 | O=C(O)c1cc(Cl)cc(Cl)c1 [PA440, 3,5-dichloro-benzoic acid, reference compound] | 0 | 0 | 0 | 0 | 0 | 0 | 
19 | O=C(O)c1ccc(Cl)cc1Cl [PA441, 2,4-dichloro-benzoic acid, reference compound] | 0 | 0 | 0 | 0 | 0 | 0 | 
20 | Cc1cccc(C(=O)O)c1 [PA442, 3,methyl-benzoic acid, reference compound] | 0 | 0 | 1 | 0 | 0 | 0 | 
21 | CCC(C)N(C(=O)c1ccc(Br)c(Br)c1)C(C)CC (stereo not shown) [PA484, 3,4-dibromo-N,N-di-sec.butyl-benzamide] | 2-3 | 0 | 2-3 | 2 | 4-3 | 3-4 | activity on B, 0-4 scale (artemisia vulgaris L.; 4 kg/ha): 1; activity on F, 0-4 scale (vicia sativa L.; 4 kg/ha): 0; activity on A, 0-4 scale ([1]; 4 kg/ha): 1-2; activity on C, 0-4 scale (chenopodium album L.; 4 kg/ha): 1; activity on E, 0-4 scale (setaria glauca L.; 4 kg/ha): 3; activity on D, 0-4 scale ([2]; 4 kg/ha): 3
22 | C=CCN(CC=C)C(=O)c1cccc(Br)c1 [PA499, 3-bromo-N,N-di-allyl-benzamide, reference compound] | 3 | 3 |  | 3 | 3 | 3 | activity on B, 0-4 scale (artemisia vulgaris L.; 4 kg/ha): 3; activity on F, 0-4 scale (vicia sativa L.; 4 kg/ha): 1; activity on A, 0-4 scale ([1]; 4 kg/ha): 2-3; activity on C, 0-4 scale (chenopodium album L.; 4 kg/ha): 2; activity on E, 0-4 scale (setaria glauca L.; 4 kg/ha): 2; activity on D, 0-4 scale ([2]; 4 kg/ha): 1
23 | CCC(C)N(C(=O)c1cc(Cl)ccc1Br)C(C)CC (stereo not shown) [PA504, 2-bromo,5-chloro-N,N-di-sec.butyl-benzamide] | 1-2 | 0-1 | 2 | 2 | 4 | 3-4 | activity on E, 0-4 scale (setaria glauca L.; 2 kg/ha): 2-3; activity on E, 0-4 scale (setaria glauca L.; 3 kg/ha): 3; activity on E, 0-4 scale (setaria glauca L.; 4 kg/ha): 3-4; activity on D, 0-4 scale ([2]; 2 kg/ha): 2-3; activity on D, 0-4 scale ([2]; 3 kg/ha): 2-3; activity on D, 0-4 scale ([2]; 4 kg/ha): 3
24 | CCC(C)N(CC(C)C)C(=O)c1ccc(Cl)c(Cl)c1 (stereo not shown) [PA566, 3,4-dichloro-N-isobutyl,N-sec.butyl-benzamide] | 2-3 | 0-1 | 3 | 3 | 4 |  | 
25 | CCC(C)N(C(=O)c1ccc(Cl)c(I)c1)C(C)CC (stereo not shown) [PA614, 4-chloro,3-iodo-N,N-di-sec.butyl-benzamide] | 0-1 | 0 | 1 | 1 |  | 3 | 
